In patent publication US20110097338A1, “Use of Substances for Sensitization of Tumor Cells to Radiation and/or Chemotherapy” (TECHNISCHE UNIVERSITAET DRESDEN, priority 2008, published 2011):
d = 2'-deoxy (DNA); r = 2'-OH (RNA)

Assays:
Type in all cases: cell-based, human
PINCH-1 protein = test: Western Blot of PINCH-1 knock-down after siRNA transfection; settings: HCT-116 and DLD-1 cells; 20 nmol/l siRNA with oligo fectamine; lysates 48 h after transfection
Protocol: (§1) Human colorectal tumor cell lines of the type HCT-116 (ATCC No. CCL-247) and of the type DLD-1 (ATCC No. CCL-221) were transfected with PINCH-1-siRNA of the SEQ ID No. 5. For this purpose, 3×10^5 tumor cells on 6-well plates (BD, Heidelberg) in Dulbecco's Modified Eagle (DMEM; Gibco, Karlsruhe) with Glutamax-I (L-alanyl-L-glutamine), 10% serum (FCS; Biochrom, Berlin) and 1% of non-essential amino acids (Gibco, Karlsruhe) were seeded and cultured at 37° C. and 7% CO2. After 24 h the cells were washed once with Opti-MEM I (Invitrogen, Karlsruhe) and transfected with oligo fectamine (0.2%) and 20 nmol/l PINCH-1-siRNA for 8 h without serum in Opti-MEM I. Afterwards 10% serum was added and the cells incubated for another 16 h at 37° C. and 7% CO2. After a total of 24 h after transfection the cells were washed with phosphate-buffered saline solution (PBS; PAA, Cölbe) and removed with trypsin/EDTA solution. […] Of this portion, protein lysates were produced for examining knock-downs in the Western Blot, the proteins were separated by means of SDS PAGE, transferred onto a nitrocellulose membrane and detected with a mouse-anti-PINCH-1-antibody (clone 49; BD Heidelberg) as well as a peroxidase-coupled goat-anti-mouse-secondary antibody and the ECL system (GE Healthcare, Munich).

HCT-116 = test: Clonogenic survival after radiation (colony forming assay), siRNA transfection; settings: siRNA 20 nmol/l, irradiated 48 h later with 0-6 Gy
Protocol: as §1

DLD-1 = test: as above; settings: siRNA 20 nmol/l, irradiated 48 h later with 0-6 Gy
Protocol: as §1

GCUAUAUCUCAAAGCAGUUtt (GCUAUAUCUCAAAGCAGUUTT; siRNA; sugars from the 5' end r19 d2, backbone not given here) [PINCH-1-siRNA of the SEQ ID No. 5]
formation of PINCH-1 protein / PINCH-1 expression (Western Blot, FIG. 3) (PINCH-1 protein): prevented | survival rate after radiation vs. control-siRNA (FIG. 4) (HCT-116): lowered significantly | survival rate after radiation vs. control-siRNA (FIG. 4) (DLD-1): lowered significantly
